In ChEMBL document CHEMBL1154002, “GPR109a agonists. Part 1: 5-Alkyl and 5-aryl-pyrazole-tetrazoles as agonists of the human orphan G-protein coupled receptor GPR109a” (Bioorg Med Chem Lett, 2009):

Key:
[1] = Volume of distribution at steady state in C57BL/6 mouse at 1 mg/kg, iv and 2 mg/kg, po; assay type: ADME, organism-based; details: in vivo, read-out: Vdss
[2] = Bioavailability in C57BL/6 mouse at 1 mg/kg, iv and 2 mg/kg, po; assay type: ADME, organism-based; details: in vivo
[3] = Plasma half life in C57BL/6 mouse at 1 mg/kg, iv and 2 mg/kg, po; assay type: ADME, organism-based
[4] = Plasma clearance in C57BL/6 mouse at 1 mg/kg, iv and 2 mg/kg, po; assay type: ADME, organism-based
Mus musculus [5] = assay: Reduction in plasma free fatty acid level in C57B1/6 mouse at 10 mg/kg after 15 mins; assay type: functional; parameters: scale not given: the % may be the effect or the level left
Mus musculus [6] = assay: Toxicity in C57B1/6 mouse assessed as cutaneous flushing at 30 mg/kg after 15 mins by laser doppler method; assay type: organism-based; parameters: dose 30 mg/kg; details: in vivo

Compound	Vd [1]	bioavailability [2]	half-life [3]	clearance [4]	Activity (Mus musculus [5])	Activity (Mus musculus [6])
Fc1cc(F)c(F)c(C2Cc3[nH]nc(-c4nnn[nH]4)c3C2)c1 (stereo in doubt; 9o)	1.1 L/kg	10%	2.4 h	27 mL/min/kg	24%	Non-toxic
O=C(O)c1cccnc1 [NIACIN]	1 L/kg	100%		145 mL/min/kg		
Fc1cccc(C2Cc3[nH]nc(-c4nnn[nH]4)c3C2)c1 (stereo unspecified)	1.79 L/kg	57%	1.8 h	47 mL/min/kg		

More lines, main results first:

Vd [1]	bioavailability [2]	half-life [3]	clearance [4]	Compound	Activity (Mus musculus [5])	Activity (Mus musculus [6])
1.55 L/kg	51%	2.9 h	30 mL/min/kg	CCCC1Cc2[nH]nc(-c3nnn[nH]3)c2C1 (stereo unspecified)		
0.7 L/kg	34%	1.5 h	21 mL/min/kg	CCCCC1Cc2[nH]nc(-c3nnn[nH]3)c2C1 (stereo in doubt; 8d)		
